Measured values taken from patent US6921772B2, “Methods and compositions for the treatment of chronic lymphocytic leukemia” (Salmedix, Inc., priority 1998, dated 2005).

Experiments:
[1] = system: isolated mononuclear cells from the peripheral blood of the patient; experiment: FITC annexin / propidium iodide flow cytometry of the patient's isolated mononuclear cells after etodolac; assay type: in vivo, human; conditions: baseline and daily for three days after administration, as lymphocyte count dropped
Experimental: To examine the possibility that a metabolite of etodolac or a serum factor may be necessary to achieve the clinical effect, the in vivo percentages of viable, apoptotic and late apoptotic or necrotic cells of isolated mononuclear cells were measured by flow cytometry using FITC annexin and propridium iodide assay. During early apoptosis and preceding DNA fragmentation, phosphatydylserine becomes exposed and bond by annexin V. Later in apoptosis and in cell necrosis, cells also become permeable to propidium iodide. FITC labeled […] and propidium iodide are easily detected by flow cytometry. Mononuclear cells were isolated from the peripheral blood of the patient by differential centrifugation on ficoll-Hypaque at baseline and then daily for three additional days after administration of etodolac. […] However, the percentage of viable cells increased and the percentage of late apoptotic or necrotic cells decreased. […] To examine the possibility that etodolac might enhance the clearance of leukemic lymphocytes by enhancing phagocytosis by macrophages, TAMRA stained isolated mononuclear cells from the patient were incubated with normal human adherent mononuclear cells in the presence of naproxen or etodolac in vitro. After an overnight incubation, the adherent cells were isolated and analyzed by flow cytometry for uptake of TAMRA stained cells from the patient. No increase in the uptake of the stained leukemic mononuclear cells by the normal adherent cells could be detected for etodolac compared to naproxen. To test the possibility that a metabolite of etodolac could be responsible for the effect, serum from the patient was collected free of drug, after receiving naproxen 375 mg bid for two days and after receiving etodolac 400 mg bid for two days, and tested in the above manner.

patient with B-cell CLL = experiment: In vivo administration of NSAIDs to a B-cell CLL patient: blood cell counts
[2] = system: normal human adherent mononuclear cells; experiment: Uptake of TAMRA stained patient mononuclear cells by normal adherent mononuclear cells (phagocytosis), flow cytometry; assay type: cell-based
Experimental: To examine the possibility that a metabolite of etodolac or a serum factor may be necessary to achieve the clinical effect, the in vivo percentages of viable, apoptotic and late apoptotic or necrotic cells of isolated mononuclear cells were measured by flow cytometry using FITC annexin and propridium iodide assay. During early apoptosis and preceding DNA fragmentation, phosphatydylserine becomes exposed and bond by annexin V. Later in apoptosis and in cell necrosis, cells also become permeable to propidium iodide. FITC labeled […] and propidium iodide are easily detected by flow cytometry. Mononuclear cells were isolated from the peripheral blood of the patient by differential centrifugation on ficoll-Hypaque at baseline and then daily for three additional days after administration of etodolac. […] However, the percentage of viable cells increased and the percentage of late apoptotic or necrotic cells decreased. […] After an overnight incubation, the adherent cells were isolated and analyzed by flow cytometry for uptake of TAMRA stained cells from the patient. No increase in the uptake of the stained leukemic mononuclear cells by the normal adherent cells could be detected for etodolac compared to naproxen. […]

[3] = B-cell CLL patient, count after NSAID course, etodolac 300 mg BID, mean +/- SD of 3 experiments

Row | SMILES | effect on lymphocyte count of the patient (in words) (patient with B-cell CLL; summary of Table 1) | effect on white blood cell count of the patient (in words) (patient with B-cell CLL; summary of Table 1) | also measured
1 | CCc1cccc2c3c([nH]c12)C(CC)(CC(=O)O)OCC3 (racemic) [Etodolac, 1,8-diethyl-1,3,4,9-tetrahydro[3,4-b]-indole-1-acetic acid] | substantial reductions | substantial reductions | percentage of apoptotic cells [1]: remained the same; percentage of late apoptotic or necrotic cells [1]: decreased; percentage of viable cells [1]: increased; Lymphocyte Ct. x E-3 (patient with B-cell CLL; [3]): 20.68 x E-3; Neutrophil Count x E-3 (patient with B-cell CLL; [3]): 3.58 x E-3; WBC Count x E-3 (patient with B-cell CLL; [3]): 25.27 x E-3; platelet count (in words) (patient with B-cell CLL; Oct. 28, 1997, after 300 mg BID Oct. 25-27, 1997): normal; lymphocyte count (patient with B-cell CLL; Oct. 28, 1997, after 300 mg BID Oct. 25-27, 1997, count before treatment 27.44×E3): 6.70 ×E3; white blood cell count (patient with B-cell CLL; Oct. 28, 1997, after 300 mg BID Oct. 25-27, 1997, count before treatment 34.3×E3): 13.40 ×E3; effect on platelet count (in words) (patient with B-cell CLL; summary of Table 1): increased significantly; uptake of stained leukemic mononuclear cells by normal adherent cells ([2]; drug present in vitro, overnight incubation, compared to naproxen): No increase; phagocytosis of lymphocytes with patient serum ([2]; serum collected after etodolac 400 mg bid for two days, compared with drug-free serum and serum after naproxen 375 mg bid): No enhancement
2 | O=C(O)Cc1ccccc1Nc1c(Cl)cccc1Cl [Diclofenac, diclofenac] | relatively little impact | relatively little impact | 
3 | CC(C)Cc1ccc(C(C)C(=O)O)cc1 (stereo not shown) [Ibuprofen, ibuprofen] | relatively little impact |  | 
4 | COc1ccc2c(c1)c(CC(=O)O)c(C)n2C(=O)c1ccc(Cl)cc1 [Indomethacin, indomethacin] | relatively little impact | relatively little impact | 
5 | COc1ccc2cc(CCC(C)=O)ccc2c1 [Nabumetone, nabumetone] | relatively little impact | relatively little impact | 
6 | COc1ccc2cc([C@H](C)C(=O)O)ccc2c1 [Naproxen, naproxen] | relatively little impact | relatively little impact | 
7 | O=C(O)CCc1nc(-c2ccccc2)c(-c2ccccc2)o1 [Oxaprozin, oxaprozin] | relatively little impact | relatively little impact | 
8 | CN1C(C(=O)Nc2ccccn2)=C(O)c2ccccc2S1(=O)=O [Piroxicam, piroxicam] | relatively little impact | relatively little impact | 
9 | CC1=C(CC(=O)O)c2cc(F)ccc2/C1=C\c1ccc([S+](C)[O-])cc1 (stereo not shown) [Sulindac, sulindac] | relatively little impact | relatively little impact | 
10 | Cc1ccc(C(=O)c2ccc(CC(=O)O)n2C)cc1 [Tolmetin, tolmetin] | relatively little impact | relatively little impact | 
